Experiment [1] deals with Huh7 hepatocellular carcinoma cells. Description: FGFR4 cell proliferation experiment, Cell Titer Glo (CTG). It counts as cell-based. As to conditions: Homo sapiens, Huh-7, 72 h, HuH-7 cells, 3 days; for IC50: concentration leading to absolute half growth inhibition; for EC50: concentration leading to half maximal growth inhibition. Here is the method:
II. FGFR4 Cell Proliferation Experiment
Cell Titer Glo (CTG) experiment was used in the present invention to evaluate the functional effects of the compounds on cell proliferation. […] Compound-mediated inhibition of cell proliferation/survival was assessed by quantification of cellular ATP levels using CTG reagent (Promega, #G7573). The specific experimental procedure was as follows:
2. 10 μL of medium containing a compound concentration of 10 fold of its final test concentration was added;
3. The dose effect was evaluated by a 5-fold serial dilution of the test compound, starting from 10 μM.
4. After cells incubation for 3 days at 37° C. under 5% CO2, the effect of the inhibitor on cell proliferation was quantified after adding 50 μL of CTG and testing with luminescence.

Experiment [2] concerns the target FGFR4 (Homo sapiens, UniProt P22455). Briefly: FGFR4 Caliper Assay (in vitro biochemical kinase analysis of FGFR4). The conditions noted are these: read-out: Enzymatic activity FGFR4 IC50. Here is the method:
I. In Vitro Biochemical Kinase Analysis of FGFR4
FGFR4 Caliper Assay was used in the present invention to determine the inhibitory activities of the compounds against FGFR4. The detailed experimental procedure was as follows.
2. A reaction system is a mixture solution of 50 mM HEPES, pH 7.5, 1 mM DTT, 0.02% Tween 20, 0.02% BSA, 0.6% DMSO, 10 mM beta glycerol phosphate and 10 μM sodium orthovanadate and 16 mM MgCl2.
3. The reaction system was incubated at 30° C. for 40 minutes.
4. The reaction was terminated by adding a stop solution (100 mM HEPES, pH 7.5, 5% DMSO, 0.1% Caliper coating reagent, 10 mM EDTA and 0.015% Brij35).
5. The culture plate with the terminated kinase reaction was transferred to the Caliper LC 3000 workstation to read the data, the phosphorylated and unphosphorylated peptides were separated by using the Caliper microfluid migration shift technique, and the analyte was transferred by allowing a constant buffer flow through the chip, the migration of the substrate peptide was monitored by the labeled fluorescent signal, and the kinase activity was calculated by using the amount of the phosphate-based peptide formed.
6. Finally, IC50 values were determined by non-linear regression analysis of percent inhibition at different compound concentrations.

Sequence of FGFR4 (P22455 22-802): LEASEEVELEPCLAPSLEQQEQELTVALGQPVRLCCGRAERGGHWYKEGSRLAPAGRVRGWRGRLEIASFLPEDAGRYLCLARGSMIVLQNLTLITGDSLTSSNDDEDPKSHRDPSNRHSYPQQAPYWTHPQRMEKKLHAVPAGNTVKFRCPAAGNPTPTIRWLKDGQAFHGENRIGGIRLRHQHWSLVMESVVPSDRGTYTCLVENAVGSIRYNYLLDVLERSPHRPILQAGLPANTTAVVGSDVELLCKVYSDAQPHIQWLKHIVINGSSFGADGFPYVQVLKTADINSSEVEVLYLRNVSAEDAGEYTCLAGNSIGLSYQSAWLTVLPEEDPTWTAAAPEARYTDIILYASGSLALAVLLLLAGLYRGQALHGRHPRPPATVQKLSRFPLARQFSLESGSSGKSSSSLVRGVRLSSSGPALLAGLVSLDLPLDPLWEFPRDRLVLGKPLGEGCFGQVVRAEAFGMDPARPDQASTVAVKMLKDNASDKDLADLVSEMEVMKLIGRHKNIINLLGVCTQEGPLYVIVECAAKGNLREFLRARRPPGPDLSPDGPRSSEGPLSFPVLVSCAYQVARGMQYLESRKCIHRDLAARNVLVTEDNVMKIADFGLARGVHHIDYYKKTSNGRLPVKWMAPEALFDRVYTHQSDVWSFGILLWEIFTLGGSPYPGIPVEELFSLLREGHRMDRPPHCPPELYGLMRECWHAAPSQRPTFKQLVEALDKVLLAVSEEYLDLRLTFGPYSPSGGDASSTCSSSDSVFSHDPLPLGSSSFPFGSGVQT

The IC50 is the concentration needed to halve the response being measured. The EC50 is the concentration needed to bring the measured effect to its halfway point. Low readings indicate greater potency, high ones weaker potency. Take `C=CC(=O)N[C@H]1COC[C@H]1Nc1ncc2cc(-c3c(Cl)c(OC)cc(OC)c3Cl)nc(NC3CCOC3)c2n1` (stereo partly drawn) [Example 443, N-((3R,4S)-4-((6-(2,6-dichloro-3,5-di-methoxyphenyl)-8-((tetrahydrofuran-3-yl)amino)pyrido[3,4-d]pyrimidin-2-yl)amino)tetrahydrofuran-3-yl) acrylamide]: the figures for the IC50 in experiment [1] and in experiment [2] were 0.0708 µM and 0.0082 µM, respectively. Moreover, the EC50 in experiment [1] was determined as 0.0159 µM.

In experiment [1], `C=CC(=O)N[C@H]1COC[C@H]1Nc1ncc2cc(-c3c(Cl)c(OC)cc(OC)c3Cl)nc(NC3CC(F)(F)C3)c2n1` [Example 452, N-((3R,4S)-4-((6-(2,6-dichloro-3,5-di-methoxyphenyl)-8-((3,3-difluorocyclo-butyl)amino)pyrido[3,4-d]pyrimidin-2-yl)amino)tetrahydrofuran-3-yl) acrylamide] registered an IC50 of 0.0533 µM and an EC50 of 0.0203 µM. In experiment [2], the IC50 came out at 0.0422 µM.

For `C=CC(=O)N[C@H]1COC[C@H]1Nc1ncc2cc(-c3c(Cl)c(OC)cc(OC)c3Cl)nc(NCC3CCCC3)c2n1` [Example 454, N-((3R,4S)-4-((8-((cyclopentylmeth-yl)amino)-6-(2,6-dichloro-3,5-dimeth-oxyphenyl)pyrido[3,4-d]pyrimidin-2-yl)amino)tetrahydrofuran-3-yl)acryl-amide], in experiment [1], the IC50 is 0.0892 µM and it took 0.0408 µM to reach a half-maximal effect (EC50). In addition, the IC50 in experiment [2] is 0.0669 µM.

In experiment [1], `C=CC(=O)N[C@H]1COC[C@H]1Nc1ncc2cc(-c3c(Cl)c(OC)cc(OC)c3Cl)nc(NCCc3ccccc3)c2n1` [Example 456, N-((3R,4S)-4-((6-(2,6-dichloro-3,5-di-methoxyphenyl)-8-(phenethylamino)pyrido[3,4-d]pyrimidin-2-yl)amino)tetrahydrofuran-3-yl)acrylamide] returned an IC50 of 0.299 µM and an EC50 of 0.163 µM. Further, the IC50 in experiment [2] came out at 0.0824 µM.

For the compound `C=CC(=O)N[C@H]1COC[C@H]1Nc1ncc2cc(-c3c(Cl)c(OC)cc(OC)c3Cl)nc(NCc3cnn(C)c3)c2n1` [Example 459, N-((3R,4S)-4-((6-(2,6-dichloro-3,5-di-methoxyphenyl)-8-(((1-methyl-1H-pyrazol-4-yl)methyl)amino)pyrido[3,4-d]pyrimidin-2-yl)amino)tetrahydro-furan-3-yl)acrylamide], in experiment [1], half-maximal inhibition (IC50) was put at 0.058 µM and the response was half-maximal at 0.0238 µM (EC50). In addition, the IC50 in experiment [2] amounted to 0.0173 µM.

Take `C=CC(=O)N[C@H]1COC[C@H]1Nc1ncc2cc(-c3c(Cl)c(OC)cc(OC)c3Cl)nc(NCC(C)(C)C)c2n1` [Example 462, N-((3R,4S)-4-((6-(2,6-dichloro-3,5-di-methoxyphenyl)-8-(neopentylamino)pyrido[3,4-d]pyrimidin-2-yl)amino)tetrahydrofuran-3-yl)acrylamide]: the IC50 stood at 0.0383 µM in experiment [1] and 0.0145 µM in experiment [2]. This compound also showed a concentration for a half-maximal effect (EC50) in experiment [1] of 0.0246 µM.

In experiment [1], `C=CC(=O)N[C@H]1COC[C@H]1Nc1ncc2cc(-c3cc(OC)cc(OC)c3Cl)nc(NCC3CC3)c2n1` [Example 475, N-((3R,4S)-4-((6-(2-chloro-3,5-dimeth-oxyphenyl)-8-((cyclopropylmethyl)a-mino)pyrido[3,4-d]pyrimidin-2-yl)a-mino)tetrahydrofuran-3-yl)acrylamide] registered an IC50 of 0.678 µM and an EC50 of 0.132 µM. The IC50 in experiment [2] stood at 0.062 µM.

In experiment [1], `C=CC(=O)N[C@H]1COC[C@H]1Nc1ncc2cc(-c3c(Cl)c(OC)cc(OC)c3Cl)nc(OCC3CC3)c2n1` [Example 498, N-((3R,4S)-4-((8-(cyclopropylmethoxy)-6-(2,6-dichloro-3,5-dimethoxyphen-nyl)pyrido[3,4-d]pyrimidin-2-yl)amino)tetrahydrofuran-3-yl)acrylamide] showed an IC50 above 10 µM and an EC50 of 2.39 µM. In addition, in experiment [2], the IC50 came to 8.8 µM.

For `C=CC(=O)N[C@H]1CCOC[C@H]1Nc1ncc2cc(-c3c(Cl)c(OC)cc(OC)c3Cl)nc(NCC3CC3)c2n1` [Example 501, N-((3S,4S)-3-((8-((cyclopropylmeth-yl)amino)-6-(2,6-dichloro-3,5-dimeth-oxyphenyl)pyrido[3,4-d]pyrimidin-2-yl)amino)tetrahydro-2H-pyran-4-yl)acrylamide], in experiment [1], the IC50 turned out to be 0.0499 µM and the EC50 is 0.0178 µM. Further, in experiment [2], the IC50 worked out at 0.0157 µM.

For `C=CC(=O)N[C@H]1COC[C@H]1Nc1ncc2cc(-c3c(Cl)c(OC)cc(OC)c3Cl)nc(C)c2n1` [Example 606, N-((3R,4S)-4-((6-(2,6-dichloro-3,5-di-methoxyphenyl)-8-methylpyrido[3,4-d]pyrimidin-2-yl)amino)tetrahydro-furan-3-yl)acrylamide], in experiment [1], the IC50 came out at 0.0411 µM and the EC50 was 0.0257 µM. Also, the IC50 in experiment [2] stood at 0.0234 µM.

In experiment [1], `C=CC(=O)N[C@H]1COC[C@H]1Nc1ncc2cc(-c3c(Cl)c(OC)cc(OC)c3Cl)nc(-c3cnn(C)c3)c2n1` [Example 629, N-((3R,4S)-4-((6-(2,6-dichloro-3,5-di-methoxyphenyl)-8-(1-methyl-1H-pyrazol-4-yl)pyrido[3,4-d]pyrimidin-2-yl)amino)tetrahydrofuran-3-yl)acryl-amide] displayed an IC50 of 0.004 µM and an EC50 of 0.0026 µM. Further, the IC50 in experiment [2] worked out at 0.0029 µM.

Consider `C=CC(=O)N[C@H]1COC[C@H]1Nc1ncc2cc(-c3c(F)c(OC)cc(OC)c3F)nc(-c3cnn(C)c3)c2n1` [Example 637, N-((3R,4S)-4-((6-(2,6-difluoro-3,5-dimethoxyphenyl)-8-(1-methyl-1H-py-razol-4-yl)pyrido[3,4-d]pyrimidin-2-yl)amino)tetrahydrofuran-3-yl)acryl-amide], for which, in experiment [1], the IC50 was found to be 0.0173 µM and the EC50 worked out at 0.0101 µM. Further, the IC50 in experiment [2] was 0.0042 µM.

As to `C=CC(=O)N[C@H]1COC[C@H]1Nc1ncc2cc(-c3c(Cl)c(OC)cc(OC)c3Cl)nc(NC3CC3)c2n1` [Example 655, N-((3R,4S)-4-((8-(cyclopropylamino)-6-(2,6-dichloro-3,5-dimethoxyphen-yl)pyrido[3,4-d]pyrimidin-2-yl)amino)tetrahydrofuran-3-yl)acrylamide], the IC50 in experiment [1] worked out at 0.0684 µM; in experiment [2] it was 0.008 µM. In experiment [1], the EC50 amounted to 0.028 µM.

For the compound `C=CC(=O)N[C@H]1COC[C@H]1Nc1ncc2cc(-c3c(Cl)c(OC)cc(OC)c3Cl)nc(N3CCC3)c2n1` [Example 657, N-((3R,4S)-4-((8-(azetidin-1-yl)-6-(2,6-dichloro-3,5-dimethoxyphenyl)py-rido[3,4-d]pyrimidin-2-yl)amino)tetra-hydrofuran-3-yl)acrylamide], the IC50 in experiment [1] was 0.0133 µM; in experiment [2] it was 0.0065 µM. Also, the response in experiment [1] was half-maximal at 0.0096 µM (EC50).

Take `C=CC(=O)N[C@H]1COC[C@H]1Nc1ncc2cc(-c3c(Cl)c(OC)cc(OC)c3Cl)nc(N3CC(OC)C3)c2n1` [Example 658, N-((3R,4S)-4-((6-(2,6-dichloro-3,5-dimethoxyphenyl)-8-(3-methoxyazeti-din-1-yl)pyrido[3,4-d]pyrimidin-2-yl)amino)tetrahydrofuran-3-yl)acryl-amide]: in experiment [1], inhibition was half-maximal at 0.0151 µM (IC50) and the response was half-maximal at 0.0114 µM (EC50). In addition, in experiment [2], the IC50 turned out to be 0.0048 µM.

These data come from patent publication US11555036B2, “FGFR4 inhibitor, preparation method therefor and pharmaceutical use thereof” (Abbisko Therapeutics Co., Ltd., priority 2016, dated 2023).
